Test results: patent US10092570B2 (Incyte Corporation, priority 2011, dated 2018)

Key:
[1] = tested on: Pfeiffer cell line (diffuse large B cell lymphoma); experiment: Example B2: Pfeiffer cell proliferation assay; format: cell-based; conditions: Pfeiffer cells, [3H]-thymidine incorporation
Method: Pfeiffer cell line (diffuse large B cell lymphoma) are purchased from ATCC (Manassas, Va.) and maintained in the culture medium recommended (RPMI and 10% FBS). To measure the anti-proliferation activity of the compounds, the Pfeiffer cells are plated with the culture medium (2×10^3 cells/well/per 200 μl) into 96-well ultra-low binding plates (Corning, Corning, N.Y.), in the presence or absence of a concentration range of test compounds. After 3-4 days, [^3H]-thymidine (1 μCi/well) (PerkinElmer, Boston, Mass.) in PBS is then added to the cell culture for an additional 12 hours before the incorporated radioactivity is separated by filtration with water through GF/B filters (Packard Bioscience, Meridenj, Conn.) and measured by liquid scintillation counting with a TopCount (Packard Bioscience).

PI3Kδ (p110δ/p85α) = PI3Kδ (p110δ/p85α) (Homo sapiens (Human), UniProt O00329); experiment: Example A3: PI3Kδ scintillation proximity assay; format: biochemical; conditions: scintillation proximity assay, 20 μM ATP, 4 nM PI3Kδ; read-out: PI3Kδ SPA IC50
In short: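 p110δ/p85α (4 nM) phosphorylated 20 μM PIP2 with 20 μM ATP plus [γ-33P]ATP in MOPS pH 6.7, MgCl2, DTT, CHAPS, 0.5% DMSO, at RT. Stopped with EDTA/excess ATP, product captured on WGA SPA beads overnight and counted; IC50 from percent control activity versus log inhibitor.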

PI3Kδ (p110δ/p85α), sequence (O00329 whole entry): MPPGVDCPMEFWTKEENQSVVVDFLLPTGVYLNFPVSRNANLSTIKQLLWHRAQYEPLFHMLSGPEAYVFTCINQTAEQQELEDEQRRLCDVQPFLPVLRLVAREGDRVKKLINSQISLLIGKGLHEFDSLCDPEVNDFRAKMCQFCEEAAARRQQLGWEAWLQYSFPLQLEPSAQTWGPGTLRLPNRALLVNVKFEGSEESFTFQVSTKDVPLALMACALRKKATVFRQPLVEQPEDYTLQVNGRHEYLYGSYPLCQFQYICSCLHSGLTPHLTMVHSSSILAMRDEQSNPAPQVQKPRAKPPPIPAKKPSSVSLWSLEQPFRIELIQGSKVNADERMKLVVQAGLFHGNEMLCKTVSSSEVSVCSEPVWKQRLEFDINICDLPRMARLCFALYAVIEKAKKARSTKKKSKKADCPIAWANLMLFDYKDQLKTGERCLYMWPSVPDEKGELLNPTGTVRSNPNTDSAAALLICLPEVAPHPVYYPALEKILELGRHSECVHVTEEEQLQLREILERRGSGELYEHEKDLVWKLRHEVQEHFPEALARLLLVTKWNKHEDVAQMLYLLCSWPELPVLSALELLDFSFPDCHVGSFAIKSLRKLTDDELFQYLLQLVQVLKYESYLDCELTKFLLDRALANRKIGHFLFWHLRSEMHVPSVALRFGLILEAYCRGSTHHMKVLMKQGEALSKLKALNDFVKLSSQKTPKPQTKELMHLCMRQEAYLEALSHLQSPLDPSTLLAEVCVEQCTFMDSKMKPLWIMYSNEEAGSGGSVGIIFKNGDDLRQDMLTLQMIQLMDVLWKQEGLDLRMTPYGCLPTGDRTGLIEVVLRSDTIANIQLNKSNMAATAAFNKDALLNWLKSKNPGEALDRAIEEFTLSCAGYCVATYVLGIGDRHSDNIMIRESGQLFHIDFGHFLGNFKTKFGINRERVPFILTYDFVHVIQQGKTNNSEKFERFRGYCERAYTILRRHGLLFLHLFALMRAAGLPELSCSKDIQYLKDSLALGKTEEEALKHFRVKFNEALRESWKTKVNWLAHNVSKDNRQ
PI3Kδ (p110δ/p85α), sequence (P27986 whole entry partner): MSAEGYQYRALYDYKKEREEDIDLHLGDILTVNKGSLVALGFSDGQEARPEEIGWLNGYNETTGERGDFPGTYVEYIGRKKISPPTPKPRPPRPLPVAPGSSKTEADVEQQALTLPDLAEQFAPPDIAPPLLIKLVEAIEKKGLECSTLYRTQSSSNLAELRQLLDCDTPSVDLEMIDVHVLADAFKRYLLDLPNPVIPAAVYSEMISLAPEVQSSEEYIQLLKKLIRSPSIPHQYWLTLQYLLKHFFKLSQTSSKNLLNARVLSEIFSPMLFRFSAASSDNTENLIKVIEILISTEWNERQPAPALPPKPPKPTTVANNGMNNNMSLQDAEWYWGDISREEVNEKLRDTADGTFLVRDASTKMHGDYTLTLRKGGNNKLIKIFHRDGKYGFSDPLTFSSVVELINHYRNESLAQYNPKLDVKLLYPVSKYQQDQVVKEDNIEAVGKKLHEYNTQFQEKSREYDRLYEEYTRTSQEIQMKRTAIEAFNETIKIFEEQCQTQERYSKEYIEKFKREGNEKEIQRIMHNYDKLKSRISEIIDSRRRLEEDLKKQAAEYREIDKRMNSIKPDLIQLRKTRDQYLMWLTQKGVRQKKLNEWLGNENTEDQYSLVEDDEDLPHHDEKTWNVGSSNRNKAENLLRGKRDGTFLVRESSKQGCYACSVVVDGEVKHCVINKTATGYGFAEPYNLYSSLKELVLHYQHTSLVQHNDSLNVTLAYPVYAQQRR

Compound	IC50 ([1]; Homo sapiens, Pfeiffer)	IC50 (PI3Kδ (p110δ/p85α))	IC50 [1]
COc1c(C(C)n2nc(C)c3c(N)ncnc32)cc(Cl)c(C#N)c1C1CN(C)C1 (single isomer, unassigned) [Example 262, 4-[1-(4-Amino-3-methyl-1H-pyrazolo[3,4-d]pyrimidin-1-yl)ethyl]-6-chloro-3-methoxy-2-(1-methylazetidin-3-yl)benzonitrile]	< 10 nM	< 10 nM	–
CCOc1c(C(C)n2nc(C)c3c(N)ncnc32)cc(Cl)c(C#N)c1C1CN(C[C@@H](C)O)C1 (stereo partly drawn) [Example 221, 4-[1-(4-Amino-3-methyl-1H-pyrazolo[3,4-d]pyrimidin-1-yl)ethyl]-6-chloro-3-ethoxy-2-{1-[(2R)-2-hydroxypropyl]azetidin-3-yl}benzonitrile]	< 10 nM	< 10 nM	–
CCOc1c(C(C)n2nc(C(F)F)c3c(N)ncnc32)cc(Cl)c(F)c1C1CN(C[C@H](C)O)C1 (stereo partly drawn) [Example 154, (2S)-1-[3-(3-{1-[4-Amino-3-(difluoromethyl)-1H-pyrazolo[3,4-d]pyrimidin-1-yl]ethyl}-5-chloro-2-ethoxy-6-fluorophenyl)azetidin-1-yl]propan-2-ol]	< 10 nM	< 10 nM	–
CCOc1c(C(C)n2nc(C)c3c(N)ncnc32)cc(Cl)c(F)c1C1CNC(=O)O1 (single isomer, unassigned) [Example 357, 5-{3-[1-(4-amino-3-methyl-1H-pyrazolo[3,4-d]pyrimidin-1-yl)ethyl]-5-chloro-2-ethoxy-6-fluorophenyl}-1,3-oxazolidin-2-one]	< 10 nM	< 10 nM	–
COc1c(C(C)n2nc(C)c3c(N)ncnc32)cc(C)c(C#N)c1C1CN(C[C@H](C)O)C1 (single isomer, unassigned) [Example 315]	< 10 nM	< 10 nM	–
CCOc1c(C(C)n2nc(C)c3c(N)ncnc32)cc(Cl)c(F)c1C1CN(C[C@@H](C)O)C1 (stereo partly drawn) [Example 142, (2R)-1-(3-{3-[1-(4-Amino-3-methyl-1H-pyrazolo[3,4-d]pyrimidin-1-yl)ethyl]-5-chloro-2-ethoxy-6-fluorophenyl}azetidin-1-yl)propan-2-ol]	< 10 nM	< 10 nM	–
CCOc1c(C(C)n2nc(C)c3c(N)ncnc32)cc(Cl)c(C#N)c1C1CN(C)C1 (single isomer, unassigned) [Example 213, 4-[1-(4-Amino-3-methyl-1H-pyrazolo[3,4-d]pyrimidin-1-yl)ethyl]-6-chloro-3-ethoxy-2-(1-methylazetidin-3-yl)benzonitrile]	< 10 nM	< 10 nM	–
CCOc1c(C(C)n2nc(C)c3c(N)ncnc32)cc(Cl)c(C)c1C1CN(C[C@H](C)O)C1 (stereo partly drawn) [Example 96, (2S)-1-(3-{3-[1-(4-Amino-3-methyl-1H-pyrazolo[3,4-d]pyrimidin-1-yl)ethyl]-5-chloro-2-ethoxy-6-methylphenyl}azetidin-1-yl)propan-2-ol bis(trifluoroacetate)]	< 10 nM	< 10 nM	–
COc1c(C(C)n2nc(C)c3c(N)ncnc32)cc(Cl)c(C)c1C1CN(C(C)CF)C1 (stereo not drawn) [Example 114, 1-(1-{5-Chloro-3-[1-(2-fluoro-1-methylethyl)azetidin-3-yl]-2-methoxy-4-methylphenyl}ethyl)-3-methyl-1H-pyrazolo[3,4-d]pyrimidin-4-amine]	< 10 nM	< 10 nM	–
CCOc1c(C(C)n2nc(C)c3c(N)ncnc32)cc(Cl)c(F)c1C1CN(C(C)C)C1 (stereo not drawn) [Example 139, 1-{1-[5-Chloro-2-ethoxy-4-fluoro-3-(1-isopropylazetidin-3-yl)phenyl]ethyl}-3-methyl-1H-pyrazolo[3,4-d]pyrimidin-4-amine]	< 10 nM	< 10 nM	–
COc1c(C(C)n2nc(C)c3c(N)ncnc32)cc(Cl)c(C)c1C1CCN(C)CC1 (racemic) [Example 163, 1-{1-[5-Chloro-2-methoxy-4-methyl-3-(1-methylpiperidin-4-yl)phenyl]ethyl}-3-methyl-1H-pyrazolo[3,4-d]pyrimidin-4-amine]	10 to 50 nM	< 10 nM	–
CCOc1c(C(C)n2nc(C)c3c(N)ncnc32)cc(Cl)c(C#N)c1C1CN(C[C@H](C)O)C1 (stereo partly drawn) [Example 220, 4-[1-(4-Amino-3-methyl-1H-pyrazolo[3,4-d]pyrimidin-1-yl)ethyl]-6-chloro-3-ethoxy-2-{1-[(2S)-2-hydroxypropyl]azetidin-3-yl}benzonitrile]	< 10 nM	< 10 nM	–
CCOc1c(C(C)n2nc(C)c3c(N)ncnc32)cc(Cl)c(F)c1C1CN(CCO)C1 (racemic) [Example 144, 2-(3-{3-[1-(4-Amino-3-methyl-1H-pyrazolo[3,4-d]pyrimidin-1-yl)ethyl]-5-chloro-2-ethoxy-6-fluorophenyl}azetidin-1-yl)ethanol]	< 10 nM	–	–

Next, values leading:

IC50 ([1]; Homo sapiens, Pfeiffer)	IC50 (PI3Kδ (p110δ/p85α))	IC50 [1]	Compound
10 to 50 nM	< 10 nM	–	COc1c(C(C)n2nc(C)c3c(N)ncnc32)cc(Cl)c(C)c1C1CN(CCO)C1 (single isomer, unassigned) [Example 104, 2-(3-{3-[1-(4-Amino-3-methyl-1H-pyrazolo[3,4-d]pyrimidin-1-yl)ethyl]-5-chloro-2-methoxy-6-methylphenyl}azetidin-1-yl)ethanol]
10 to 50 nM	< 10 nM	–	COc1c(C(C)n2nc(C)c3c(N)ncnc32)cc(Cl)c(C)c1C1CN([C@@H](C)CO)C1 (stereo partly drawn) [Example 157]
< 10 nM	< 10 nM	–	COc1c(C(C)n2nc(C)c3c(N)ncnc32)cc(Cl)c(C#N)c1C1CN(C[C@@H](C)O)C1 (stereo partly drawn) [Example 270, 4-[1-(4-Amino-3-methyl-1H-pyrazolo[3,4-d]pyrimidin-1-yl)ethyl]-6-chloro-2-{1-[(2R)-2-hydroxypropyl]azetidin-3-yl}-3-methoxybenzonitrile]
< 10 nM	< 10 nM	–	COc1c(C(C)n2nc(C)c3c(N)ncnc32)cc(Cl)c(C#N)c1C1CN(C[C@H](C)O)C1 (stereo partly drawn) [Example 269, 4-[1-(4-Amino-3-methyl-1H-pyrazolo[3,4-d]pyrimidin-1-yl)ethyl]-6-chloro-2-{1-[(2S)-2-hydroxypropyl]azetidin-3-yl}-3-methoxybenzonitrile]
< 10 nM	–	–	COc1c(C(C)n2nc(C)c3c(N)ncnc32)cc(Cl)c(Cl)c1C1CN(CC(C)(C)O)C1 (single isomer, unassigned) [Example 303, 1-(3-{3-[1-(4-Amino-3-methyl-1H-pyrazolo[3,4-d]pyrimidin-1-yl)ethyl]-5,6-dichloro-2-methoxyphenyl}azetidin-1-yl)-2-methylpropan-2-ol]
< 10 nM	–	–	COc1c(C(C)n2nc(C)c3c(N)ncnc32)cc(Cl)c(F)c1C1CN(C(C)C)C1 (stereo not drawn) [67 (1st peak), 1-{1-[5-Chloro-4-fluoro-3-(1-isopropylazetidin-3-yl)-2-methoxyphenyl]ethyl}-3-methyl-1H-pyrazolo[3,4-d]pyrimidin-4-amine]
< 10 nM	< 10 nM	–	COc1c(C(C)n2nc(C)c3c(N)ncnc32)cc(Cl)c(C#N)c1C1CN(CCO)C1 (single isomer, unassigned) [Example 268, 4-[1-(4-Amino-3-methyl-1H-pyrazolo[3,4-d]pyrimidin-1-yl)ethyl]-6-chloro-2-[1-(2-hydroxyethyl)azetidin-3-yl]-3-methoxybenzonitrile]
–	< 10 nM	10 to 50 nM	COc1c(C(C)n2nc(C)c3c(N)ncnc32)cc(Cl)c(C)c1C1CN(C[C@@H](C)O)C1 (single isomer, unassigned) [Example 103]
< 10 nM	< 10 nM	–	COc1c(C(C)n2nc(C)c3c(N)ncnc32)cc(Cl)c(C)c1C1CN(CC(C)O)C1 (stereo in doubt) [Example 102, (2S)-1-(3-{3-[1-(4-Amino-3-methyl-1H-pyrazolo[3,4-d]pyrimidin-1-yl)ethyl]-5-chloro-2-methoxy-6-methylphenyl}azetidin-1-yl)propan-2-ol]
< 10 nM	–	–	COc1c(C(C)n2nc(C)c3c(N)ncnc32)cc(Cl)c(F)c1C1CN(C[C@H](C)O)C1 (single isomer, unassigned) [68 (1st peak)]
< 10 nM	< 10 nM	–	CCOc1c(C(C)n2nc(C)c3c(N)ncnc32)cc(Cl)c(F)c1C1CN(CC(C)(C)O)C1 (racemic) [Example 140, 1-(3-{3-[1-(4-Amino-3-methyl-1H-pyrazolo[3,4-d]pyrimidin-1-yl)ethyl]-5-chloro-2-ethoxy-6-fluorophenyl}azetidin-1-yl)-2-methylpropan-2-ol]
< 10 nM	–	–	COc1c(C(C)n2nc(C)c3c(N)ncnc32)cc(Cl)c(C)c1C1CN(CC(N)=O)C1 (single isomer, unassigned) [Example 111, 2-(3-{3-[1-(4-Amino-3-methyl-1H-pyrazolo[3,4-d]pyrimidin-1-yl)ethyl]-5-chloro-2-methoxy-6-methylphenyl}azetidin-1-yl)acetamide]
